Test system: Beet Armyworm (Spodoptera exigua)
Test: Bioassay on Beet Armyworm (BAW), 128-well diet tray assay
Type: in vivo
Settings: Table 3, Assays Results Part 1
Protocol: Certain molecules disclosed in this document were tested against BAW, CEW and CL using procedures described in the following examples. In the reporting of the results, the “BAW & CEW & CL Rating Table” was used (See Table Section).
Bioassays on BAW (Spodoptera exigua)
Bioassays on BAW were conducted using a 128-well diet tray assay. One to five second instar BAW larvae were placed in each well (3 mL) of the diet tray that had been previously filled with 1 mL of artificial diet to which 50 μg/cm^2 of the test compound (dissolved in 50 μL of 90:10 acetone-water mixture) had been applied (to each of eight wells) and then allowed to dry. Trays were covered with a clear self-adhesive cover, and held at 25° C., 14:10 light-dark for five to seven days. Percent mortality was recorded for the larvae in each well; activity in the eight wells was then averaged. The results are indicated in the tables entitled “Table 3: Assay Results Part 1” and “Table 4: Assay Results Part 2” (See Table Section).

Structure (SMILES) | BAW Rating
O=C(NCc1ccc(/C=C/C(c2cc(Cl)cc(Cl)c2)C(F)(F)F)cc1)C1CC1 (stereo not shown) [CC2] | A (50-100)
O=C(CC(F)(F)F)NCc1ccc(/C=C/C(c2cc(Cl)cc(Cl)c2)C(F)(F)F)cc1 (stereo not shown) [CC3] | A (50-100)
CCC(=O)NCc1ccc(/C=C/C(c2cc(Cl)cc(Cl)c2)C(F)(F)F)cc1 (stereo not shown) [CC4] | A (50-100)
O=C(NCc1ccc(/C=C/C(c2cc(Cl)c(Cl)c(Cl)c2)C(F)(F)F)cc1)C1CC1 (stereo not shown) [CC5] | A (50-100)
O=C(CC(F)(F)F)NCc1ccc(/C=C/C(c2cc(Cl)c(Cl)c(Cl)c2)C(F)(F)F)cc1 (stereo not shown) [CC6] | A (50-100)
CC(=O)NCc1ccc(/C=C/C(c2cc(Cl)cc(Cl)c2)C(F)(F)F)cc1Cl (stereo not shown) [CC7, (E)-N-(2-Chloro-4-(3-(3,5-dichlorophenyl)-4,4,4-trifluorobut-1-en-1-yl)benzyl)acetamide] | A (50-100)
O=C(NCc1ccc(/C=C/C(c2cc(Cl)cc(Cl)c2)C(F)(F)F)cc1Cl)C1CC1 (stereo not shown) [CC8] | A (50-100)
O=C(CC(F)(F)F)NCc1ccc(/C=C/C(c2cc(Cl)cc(Cl)c2)C(F)(F)F)cc1Cl (stereo not shown) [CC9] | A (50-100)
O=C(NCc1ccc(/C=C/C(c2cc(Cl)c(Cl)c(Cl)c2)C(F)(F)F)cc1Cl)C1CC1 (stereo not shown) [CC11] | A (50-100)
O=C(Cc1ccc(Cl)nc1)NCc1ccc(/C=C/C(c2cc(Cl)c(Cl)c(Cl)c2)C(F)(F)F)cc1Cl (stereo not shown) [CC14] | A (50-100)
O=C(NCc1ccc(/C=C/C(c2cc(Cl)c(F)c(Cl)c2)C(F)(F)F)cc1Cl)C1CC1 (stereo not shown) [CC15] | A (50-100)
O=C(NCc1ccc(/C=C/C(c2ccc(Cl)c(Cl)c2)C(F)(F)F)cc1Cl)C1CC1 (stereo not shown) [CC17] | A (50-100)
O=C(CC(F)(F)F)NCc1ccc(/C=C/C(c2ccc(Cl)c(Cl)c2)C(F)(F)F)cc1Cl (stereo not shown) [CC18] | A (50-100)
CSCCC(=O)NCc1ccc(/C=C/C(c2cc(Cl)c(Cl)c(Cl)c2)C(F)(F)F)cc1Cl (stereo not shown) [CC19] | A (50-100)
FC(F)(F)C(/C=C/c1ccc(CNC(=S)C2CC2)c(Cl)c1)c1cc(Cl)c(Cl)c(Cl)c1 (stereo not shown) [CC20] | A (50-100)
O=C(NCc1ccc(/C=C/C(c2cc(Cl)cc(Cl)c2)C(F)(F)F)cc1C(F)(F)F)C1CC1 (stereo not shown) [CC21] | A (50-100)
O=C(NCc1ccc(/C=C/C(c2cc(Cl)c(Cl)c(Cl)c2)C(F)(F)F)cc1C(F)(F)F)C1CC1 (stereo not shown) [CC22] | A (50-100)
O=C(CC(F)(F)F)NCc1ccc(/C=C/C(c2cc(Cl)c(Cl)c(Cl)c2)C(F)(F)F)cc1C(F)(F)F (stereo not shown) [CC24] | A (50-100)
O=C(CC(F)(F)F)NCc1ccc(/C=C/C(c2cc(Cl)c(Cl)c(Cl)c2)C(F)(F)F)cc1Br (stereo not shown) [CC25] | A (50-100)

Structure (SMILES) | BAW Rating
O=C(NCc1ccc(/C=C/C(c2cc(Cl)c(Cl)c(Cl)c2)C(F)(F)F)cc1Br)C1CC1 (stereo not shown) [CC26] | A (50-100)
O=C(CC(F)(F)F)NCc1ccc(/C=C/C(c2cc(Cl)c(Cl)c(Cl)c2)C(F)(F)F)cc1F (stereo not shown) [CC27] | A (50-100)
O=C(NCc1ccc(/C=C/C(c2cc(Cl)c(Cl)c(Cl)c2)C(F)(F)F)cc1F)C1CC1 (stereo not shown) [CC28] | A (50-100)
O=C(C1CC1)N(Cc1ccccn1)Cc1ccc(/C=C/C(c2cc(Cl)c(Cl)c(Cl)c2)C(F)(F)F)cc1C(F)(F)F (stereo not shown) [CC29, (E)-N-(Pyridin-2-ylmethyl)-N-(4-(4,4,4-trifluoro-3-(3,4,5-trichlorophenyl)but-1-enyl)-2-(trifluoromethyl)benzyl)cyclopropanecarboxamide] | A (50-100)
CS(=O)(=O)CCC(=O)NCc1ccc(/C=C/C(c2cc(Cl)c(Cl)c(Cl)c2)C(F)(F)F)cc1Cl (stereo not shown) [CC30, (E)-N-(2-Chloro-4-(4,4,4-trifluoro-3-(3,4,5-trichlorophenyl)but-1-en-1-yl)benzyl)-3-(methylsulfonyl)propanamide] | A (50-100)
CCNC(=O)NCc1ccc(/C=C/C(c2cc(Cl)cc(Cl)c2)C(F)(F)F)cc1Cl (stereo not shown) [CC31, (E)-1-(2-Chloro-4-(3-(3,5-dichlorophenyl)-4,4,4-trifluorobut-1-en-1-yl)benzyl)-3-ethylurea] | B (More than 0-Less than 50)
CCNC(=O)NCc1ccc(/C=C/C(c2cc(Cl)c(Cl)c(Cl)c2)C(F)(F)F)cc1C(F)(F)F (stereo not shown) [CC32] | A (50-100)
CCNC(=O)NCc1ccc(/C=C/C(c2cc(Cl)c(Cl)c(Cl)c2)C(F)(F)F)cc1Br (stereo not shown) [CC33] | A (50-100)
O=C(NCc1ccc(/C=C/C(c2cc(Cl)c(Cl)c(Cl)c2)C(F)(F)F)cc1Cl)N1CCOCC1 (stereo not shown) [CC34] | A (50-100)
CN(C)C(=O)NCc1ccc(/C=C/C(c2cc(Cl)c(Cl)c(Cl)c2)C(F)(F)F)cc1Cl (stereo not shown) [CC36, (E)-3-(2-Chloro-4-(4,4,4-trifluoro-3-(3,4,5-trichlorophenyl)but-1-en-1-yl)benzyl)-1,1-dimethylurea] | A (50-100)
CCNC(=S)NCc1ccc(/C=C/C(c2cc(Cl)c(Cl)c(Cl)c2)C(F)(F)F)cc1Cl (stereo not shown) [CC37, (E)-1-(2-Chloro-4-(4,4,4-trifluoro-3-(3,4,5-trichlorophenyl)but-1-en-1-yl)benzyl)-3-ethylthiourea] | A (50-100)
C=CCNC(=S)NCc1ccc(/C=C/C(c2cc(Cl)c(Cl)c(Cl)c2)C(F)(F)F)cc1Cl (stereo not shown) [CC38] | A (50-100)
FC(F)(F)C(/C=C/c1ccc(CNc2ccccn2)c(Cl)c1)c1cc(Cl)c(Cl)c(Cl)c1 (stereo not shown) [CC43, (E)-N-(2-Chloro-4-(4,4,4-trifluoro-3-(3,4,5-trichlorophenyl)but-1-en-1-yl)benzyl)pyridin-2-amine] | A (50-100)
O=C(CC(F)(F)F)NCc1ncc(/C=C/C(c2cc(Cl)c(Cl)c(Cl)c2)C(F)(F)F)cc1Cl (stereo not shown) [CC44, (E)-N-((3-Chloro-5-(4,4,4-trifluoro-3-(3,4,5-trichlorophenyl)-but-1-en-1-yl)pyridin-2-yl)methyl)-3,3,3-trifluoropropanamide] | A (50-100)
O=C(NCc1ncc(/C=C/C(c2cc(Cl)c(Cl)c(Cl)c2)C(F)(F)F)cc1Cl)C1CC1 (stereo not shown) [CC45] | A (50-100)
O=C(NNc1ccc(/C=C/C(c2cc(Cl)c(Cl)c(Cl)c2)C(F)(F)F)cc1)C1CC1 (stereo not shown) [CC50, (E)-N′-(4-(4,4,4-Trifluoro-3-(3,4,5-trichlorophenyl)but-1-en-1-yl)phenyl)cyclopropanecarbohydrazide] | A (50-100)
O=C(CC(F)(F)F)NNc1ccc(/C=C/C(c2cc(Cl)c(Cl)c(Cl)c2)C(F)(F)F)cc1 (stereo not shown) [CC51] | A (50-100)
O=C(NOc1ccc(/C=C/C(c2cc(Cl)c(Cl)c(Cl)c2)C(F)(F)F)cc1)C1CC1 (stereo not shown) [CC52, (E)-N-(4-(4,4,4-Trifluoro-3-(3,4,5-trichlorophenyl)but-1-en-1-yl)phenoxy)cyclopropanecarboxamide] | A (50-100)

Source: patent US9226500B2, “Pesticidal compositions and processes related thereto” (Dow AgroSciences LLC, priority 2012, dated 2016)
